US9662327B2 (AGIOS PHARMACEUTICALS, INC, priority 2011, dated 2017)

Assays:
[1] = test system: HT1080 cells; assay: Cellular assay for IDH1m inhibitors: inhibition of 2-HG production in HT1080 cells (LC-MS); assay type: cell-based; settings: Homo sapiens, HT-1080, 48 hours
Procedure, shortened: (§1)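 HT1080 or U87MG cells seeded at 5000 cells/well overnight, then compound added (final DMSO 0.2%) and incubated 48 hours at 37 C. 2-HG in the medium quantified by LC-MS; viability checked by CellTiter-Glo luminescence at 72 hours post compound.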

[2] = biological target: IDH1 R132H (Homo sapiens (Human), UniProt O75874, R132H); assay: Assays for IDH1 R132H Inhibitors (NADPH/aKG, resazurin detection); assay type: biochemical; settings: IDH1 R132H enzyme, Table 3; read-out: R132H IC50
Procedure, shortened: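 Substrate mix held 8 uM NADPH plus 2 mM aKG; buffer was 20 mM Tris pH 7.5 with 150 mM NaCl, 10 mM MgCl2, 0.03% BSA. After 50 min room-temperature reaction, NADPH remaining was detected with 30 μM resazurin mix over 5 min.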

[3] = test system: U87R132H (U87MG) cells; assay: Cellular assay for IDH1m inhibitors: inhibition of 2-HG production in U87MG (U87R132H) cells (LC-MS); assay type: cell-based; settings: Homo sapiens, U-87 MG, 48 hours
Procedure, shortened: as §1

Sequence of IDH1 R132H (O75874 whole entry R132H): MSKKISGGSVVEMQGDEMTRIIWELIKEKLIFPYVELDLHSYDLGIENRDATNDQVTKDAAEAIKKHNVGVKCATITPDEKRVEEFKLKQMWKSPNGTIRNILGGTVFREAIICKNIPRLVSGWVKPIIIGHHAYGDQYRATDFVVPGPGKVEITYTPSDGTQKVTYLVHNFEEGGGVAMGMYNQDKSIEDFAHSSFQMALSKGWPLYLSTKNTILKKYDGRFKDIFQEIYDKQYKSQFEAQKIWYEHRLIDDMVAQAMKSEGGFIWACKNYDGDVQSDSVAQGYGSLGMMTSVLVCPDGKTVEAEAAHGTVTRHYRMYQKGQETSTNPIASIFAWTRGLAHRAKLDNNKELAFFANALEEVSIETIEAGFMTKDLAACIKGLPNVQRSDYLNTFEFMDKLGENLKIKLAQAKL

IC50 [1] [nM]	IC50 [2] [nM]	IC50 [3] [nM]	Structure (SMILES)
< 500	< 500	< 500	CC(C)[C@@H]1CN(c2nc(C3CC3)c3c(c2C#N)CC(C)(C)OC3)CCN1C(=O)CCO [Compound 429, (R)-8-cyclopropyl-6-(4-(3-hydroxypropanoyl)-3-isopropylpiperazin-1-yl)-3,3-dimethyl-3,4-dihydro-1H-pyrano[3,4-c]pyridine-5-carbonitrile]
< 500	< 500	500 to 1000	CC1(C)Cc2c(C#N)c(N3CCN(C(=O)c4ccoc4)C(C4CC4)C3)nc(C3CC3)c2CO1 (stereo not drawn) [Compound 426, 8-cyclopropyl-6-(3-cyclopropyl-4-(furan-3-carbonyl)piperazin-1-yl)-3,3-dimethyl-3,4-dihydro-1H-pyrano[3,4-c]pyridine-5-carbonitrile]
1000 to 10000	< 500	500 to 1000	[2H]C([2H])([2H])C([2H])(C([2H])([2H])[2H])[C@@]1([2H])N(C(=O)CC(F)(F)F)C([2H])([2H])C([2H])([2H])N(c2nc(C3CC3)c3c(c2C#N)CC(C)(C)OC3)C1([2H])[2H] [Compound 452, (R)-8-cyclopropyl-6-(2,2,3,3,5,6,6-heptadeuterio-5-(perdeuteriopropan-2-yl)-4-(3,3,3-trifluoropropanoyl)piperazin-1-yl)-3,3-dimethyl-3,4-dihydro-1H-pyrano[3,4-c]pyridine-5-carbonitrile]
1000 to 10000	500 to 1000	1000 to 10000	CNC(=O)CC(=O)N1CCN(c2nc(C3CC3)c3c(c2C#N)CC(C)(C)OC3)C[C@H]1C(C)C [Compound 422, (R)-3-(4-(5-cyano-8-cyclopropyl-3,3-dimethyl-3,4-dihydro-1H-pyrano[3,4-c]pyridin-6-yl)-2-isopropylpiperazin-1-yl)-N-methyl-3-oxopropanamide]
500 to 1000	< 500	500 to 1000	CC(O)CC(=O)N1CCN(c2nc(C3CC3)c3c(c2C#N)CC(C)(C)OC3)C[C@H]1C(C)C (stereo partly drawn) [Compound 433, 8-cyclopropyl-6-((3R)-4-(3-hydroxybutanoyl)-3-isopropylpiperazin-1-yl)-3,3-dimethyl-3,4-dihydro-1H-pyrano[3,4-c]pyridine-5-carbonitrile]
< 500	500 to 1000	< 500	CC(C)[C@@H]1CN(c2nc(C3CC3)c3c(c2C#N)CC(C)(C)OC3)CCN1C(=O)Cc1nnco1 [Compound 455, (R)-6-(4-(2-(1,3,4-oxadiazol-2-yl)acetyl)-3-isopropylpiperazin-1-yl)-8-cyclopropyl-3,3-dimethyl-3,4-dihydro-1H-pyrano[3,4-c]pyridine-5-carbonitrile]
< 500	< 500	< 500	C=CC(=O)N1CCc2c(C3CC3)nc(N3CCN(C(=O)CCOC)[C@H](C4CC4)C3)c(C#N)c2C1 [Compound 483, (R)-6-acryloyl-1-cyclopropyl-3-(3-cyclopropyl-4-(3-methoxypropanoyl)piperazin-1-yl)-5,6,7,8-tetrahydro-2,6-naphthyridine-4-carbonitrile]
< 500	< 500	< 500	C=CC(=O)N1CCc2c(C#N)c(N3CCN(C(=O)CCO)[C@H](C4CC4)C3)nc(C3CC3)c2C1 [Compound 498, (R)-7-acryloyl-1-cyclopropyl-3-(3-cyclopropyl-4-(3-hydroxypropanoyl)piperazin-1-yl)-5,6,7,8-tetrahydro-2,7-naphthyridine-4-carbonitrile]
< 500	< 500	< 500	C=CC(=O)N1CCc2c(C#N)c(N3CCN(C(=O)CCOC)[C@H](C4CC4)C3)nc(C3CC3)c2C1 [Compound 485, (R)-7-acryloyl-1-cyclopropyl-3-(3-cyclopropyl-4-(3-methoxypropanoyl)piperazin-1-yl)-5,6,7,8-tetrahydro-2,7-naphthyridine-4-carbonitrile]
1000 to 10000	< 500	500 to 1000	CS(=O)(=O)N1CCc2c(C#N)c(N3CCN(C(=O)C4CC4)[C@H](C4CC4)C3)nc(C3CC3)c2C1 [Compound 481, (R)-3-(4-(cyclopropanecarbonyl)-3-cyclopropylpiperazin-1-yl)-1-cyclopropyl-7-(methylsulfonyl)-5,6,7,8-tetrahydro-2,7-naphthyridine-4-carbonitrile]
